Type in all cases: cell-based
For test [1], the system named is microfilariae of Dirofilaria immitis. The test can be described thus: Dirofilaria immitis, Microfilaria (DiMf) In Vitro Assay. As to conditions: Dirofilaria immitis, 72 h, read-out: DiMf MED, Minimum Effective Dose, D. immitis microfilariae motility, in vitro.
In test [2] the test system is third stage larvae of Haemonchus contortus. The test can be described thus: Haemonchus contortus, Larvae Stage 3 (HcL3) In Vitro Assay. The following applies: Haemonchus contortus, 96 h.
A further test has as its system D. immitis L4 larvae. The test can be described thus: Dirofilaria immitis, L4 Stage (DiL4) In Vitro Assay. The following applies: for minimal effective concentration: Dirofilaria immitis, 72 h, read-out: DiL4 MED, Minimum Effective Dose, D. immitis L4 larvae motility, in vitro; for DiMf/DiL4: larval stage selectivity, ratio of DiMf MED to DiL4 MED.
The mark [3] stands for this setting: read-out: HcL3 MED, Haemonchus contortus third stage larvae in vitro, class mark appended to the Ex # in Table 3.
Where [4] appears, read: read-out: HcL3 MED, Minimum Effective Dose, H. contortus third stage larvae, approximately 96 hours.
Where [5] appears, read: read-out: HcL3 MED, approximately 96 hours incubation, multiple-resistant field isolate.

Results on eight molecules are retold here after patent US11771738B2 (Zoetis Services LLC, priority 2018, dated 2023).

Each structure is given as a SMILES string. Like-named read-outs stand apart in the source and are kept apart here.

Regarding `CC(C)C[C@H]1C(=O)O[C@H](Cc2ccc(Cc3ccco3)cc2)C(=O)N(C)[C@@H](CC(C)C)C(=O)O[C@H](C)C(=O)N(C)[C@@H](CC(C)C)C(=O)O[C@H](Cc2ccc(Cc3ccco3)cc2)C(=O)N(C)[C@@H](CC(C)C)C(=O)O[C@H](C)C(=O)N1C` [Example 3-8, (3S,6R,9S,12R,15S,18R,21S,24R)-6,18-bis(4-(furan-2-ylmethyl)benzyl)-3,9,15,21-tetraisobutyl-4,10,12,16,22,24-hexamethyl-1,7,13,19-tetraoxa-4,10,16,22-tetraazacyclotetracosan-2,5,8,11,14,17,20,23-octaone], the minimal effective concentration was 0.01 µM in test [1]; less than 1 µM in test [2] (setting [3]); 1 µM in test [2] (setting [4]); not above 1 µM in test [2] (setting [5]); 0.0003 µM in the test on D. immitis L4 larvae. The DiMf/DiL4 in the test with D. immitis L4 larvae was found to be 33.3.

With `CC(C)C[C@H]1C(=O)O[C@H](Cc2ccc(Cc3cncs3)cc2)C(=O)N(C)[C@@H](CC(C)C)C(=O)O[C@H](C)C(=O)N(C)[C@@H](CC(C)C)C(=O)O[C@H](Cc2ccc(Cc3cncs3)cc2)C(=O)N(C)[C@@H](CC(C)C)C(=O)O[C@H](C)C(=O)N1C` [Example 3-12, (3S,6R,9S,12R,15S,18R,21S,24R)-3,9,15,21-tetraisobutyl-4,6,10,16,18,22-hexamethyl-12,24-bis(4-(thiazol-5-ylmethyl)benzyl)-1,7,13,19-tetraoxa-4,10,16,22-tetraazacyclotetracosan-2,5,8,11,14,17,20,23-octaone], the minimal effective concentration in test [1] is 0.0007 µM; in test [2] (setting [3]), 1 to 3.3 µM; in test [2] (setting [4]) it was 3.3 µM; in the test with D. immitis L4 larvae it was 0.001 µM. In addition, the DiMf/DiL4 in the test with D. immitis L4 larvae came to 0.7.

In the case of `CC(C)C[C@H]1C(=O)O[C@H](Cc2ccc(Cc3nccs3)cc2)C(=O)N(C)[C@@H](CC(C)C)C(=O)O[C@H](C)C(=O)N(C)[C@@H](CC(C)C)C(=O)O[C@H](Cc2ccc(Cc3nccs3)cc2)C(=O)N(C)[C@@H](CC(C)C)C(=O)O[C@H](C)C(=O)N1C` [Example 3-17, (3S,6R,9S,12R,15S,18R,21S,24R)-3,9,15,21-tetraisobutyl-4,6,10,16,18,22-hexamethyl-12,24-bis(4-(thiazol-2-ylmethyl)benzyl)-1,7,13,19-tetraoxa-4,10,16,22-tetraazacyclotetracosan-2,5,8,11,14,17,20,23-octaone], the minimal effective concentration was 0.0003 µM in test [1]; less than 1 µM in test [2] (setting [3]); 0.5 µM in test [2] (setting [4]); not above 1 µM in test [2] (setting [5]); 0.0003 µM in the test on D. immitis L4 larvae. Further, in the test with D. immitis L4 larvae, the DiMf/DiL4 stood at 1.

Take `CC(C)C[C@H]1C(=O)O[C@H](Cc2ccc(Cc3ncco3)cc2)C(=O)N(C)[C@@H](CC(C)C)C(=O)O[C@H](C)C(=O)N(C)[C@@H](CC(C)C)C(=O)O[C@H](Cc2ccc(Cc3ncco3)cc2)C(=O)N(C)[C@@H](CC(C)C)C(=O)O[C@H](C)C(=O)N1C` [Example 3-18, (3S,6R,9S,12R,15S,18R,21S,24R)-3,9,15,21-tetraisobutyl-4,6,10,16,18,22-hexamethyl-12,24-bis(4-(oxazol-2-ylmethyl)benzyl)-1,7,13,19-tetraoxa-4,10,16,22-tetraazacyclotetracosan-2,5,8,11,14,17,20,23-octaone]: the minimal effective concentration in test [1] is 0.0002 µM; in test [2] (setting [3]) it was less than 1 µM; in test [2] (setting [4]), 1 µM; in test [2] (setting [5]), not above 1 µM; in the test with D. immitis L4 larvae, 0.0001 µM. Also, in the test with D. immitis L4 larvae, the DiMf/DiL4 amounted to 2.

Turning to `Cc1noc(C)c1Cc1ccc(C[C@H]2OC(=O)[C@H](CC(C)C)N(C)C(=O)[C@@H](C)OC(=O)[C@H](CC(C)C)N(C)C(=O)[C@@H](Cc3ccc(Cc4c(C)noc4C)cc3)OC(=O)[C@H](CC(C)C)N(C)C(=O)[C@@H](C)OC(=O)[C@H](CC(C)C)N(C)C2=O)cc1` [Example 3-21, (3S,6R,9S,12R,15S,18R,21S,24R)-6,18-bis(4-((3,5-dimethylisoxazol-4-yl)methyl)benzyl)-3,9,15,21-tetraisobutyl-4,10,12,16,22,24-hexamethyl-1,7,13,19-tetraoxa-4,10,16,22-tetraazacyclotetracosan-2,5,8,11,14,17,20,23-octaone], the minimal effective concentration in test [1] was 0.0001 µM; in test [2] (setting [3]) it was less than 1 µM; in test [2] (setting [4]), 0.3 µM; in test [2] (setting [5]), not above 1 µM; in the test with D. immitis L4 larvae, less than 3e-05 µM. The DiMf/DiL4 in the test with D. immitis L4 larvae was more than 3.3.

Take `CC(C)C[C@H]1C(=O)O[C@H](Cc2ccc(Cc3ccnn3C)cc2)C(=O)N(C)[C@@H](CC(C)C)C(=O)O[C@H](C)C(=O)N(C)[C@@H](CC(C)C)C(=O)O[C@H](Cc2ccc(Cc3ccnn3C)cc2)C(=O)N(C)[C@@H](CC(C)C)C(=O)O[C@H](C)C(=O)N1C` [Example 3-24, (3S,6R,9S,12R,15S,18R,21S,24R)-3,9,15,21-tetraisobutyl-4,6,10,16,18,22-hexamethyl-12,24-bis(4-((1-methyl-1H-pyrazol-5-yl)methyl)benzyl)-1,7,13,19-tetraoxa-4,10,16,22-tetraazacyclotetracosan-2,5,8,11,14,17,20,23-octaone]: the minimal effective concentration in test [1] is 0.0001 µM; in test [2] (setting [3]), less than 1 µM; in test [2] (setting [4]), 1 µM; in test [2] (setting [5]) it was not above 1 µM; in the test with D. immitis L4 larvae, 3e-05 µM. Also, in the test with D. immitis L4 larvae, the DiMf/DiL4 was 3.3.

As for `COc1ncccc1Cc1ccc(C[C@H]2OC(=O)[C@H](CC(C)C)N(C)C(=O)[C@@H](C)OC(=O)[C@H](CC(C)C)N(C)C(=O)[C@@H](Cc3ccc(Cc4cccnc4OC)cc3)OC(=O)[C@H](CC(C)C)N(C)C(=O)[C@@H](C)OC(=O)[C@H](CC(C)C)N(C)C2=O)cc1` [Example 3-31, (3S,6R,9S,12R,15S,18R,21S,24R)-3,9,15,21-tetraisobutyl-6,18-bis(4-((2-methoxypyridin-3-yl)methyl)benzyl)-4,10,12,16,22,24-hexamethyl-1,7,13,19-tetraoxa-4,10,16,22-tetraazacyclotetracosan-2,5,8,11,14,17,20,23-octaone], the minimal effective concentration in test [1] is 0.005 µM; in test [2] (setting [3]) it was 1 to 3.3 µM; in test [2] (setting [4]), 2.4 µM; in the test with D. immitis L4 larvae it was 0.0002 µM. Further, the DiMf/DiL4 with D. immitis L4 larvae turned out to be 25.

Turning to `Cc1ccsc1Cc1ccc(C[C@H]2OC(=O)[C@H](CC(C)C)N(C)C(=O)[C@@H](C)OC(=O)[C@H](CC(C)C)N(C)C(=O)[C@@H](Cc3ccc(Cc4sccc4C)cc3)OC(=O)[C@H](CC(C)C)N(C)C(=O)[C@@H](C)OC(=O)[C@H](CC(C)C)N(C)C2=O)cc1` [Example 3-44, (3S,6R,9S,12R,15S,18R,21S,24R)-3,9,15,21-tetraisobutyl-4,6,10,16,18,22-hexamethyl-12,24-bis(4-((3-methylthiophen-2-yl)methyl)benzyl)-1,7,13,19-tetraoxa-4,10,16,22-tetraazacyclotetracosan-2,5,8,11,14,17,20,23-octaone], the minimal effective concentration is 0.1 µM in test [1], 1 to 3.3 µM in test [2] (setting [3]), 1.8 µM in test [2] (setting [4]) and 0.0001 µM in the test with D. immitis L4 larvae. For the same molecule, the DiMf/DiL4 in the test on D. immitis L4 larvae is reported as 1000.
